A word on the IC50: it is the concentration that gives 50% inhibition.

Consider 6 compounds from publication PMC4323000 (Oncotarget, 2015).

One data set has as its system HEK-pcDNA3.1 xenografts. The experiment in a line: Chemosensitization study, just-established ABCG2-negative tumors. The note with it: CPT-11 alone 20 mg/kg.
A short description of data set [1]: Pharmacokinetic study of MBL-II-141, CPT-11 and SN-38 (blood, liver, brain; LC-MS/MS). The note with it: for Mean of differences in Blood levels, compound alone versus CPT-11 + MBL-II-141: P (two tailed): CPT-11 0.3616, SN-38 0.0299, MBL-II-141 0.1555; for Mean of differences in Liver levels, compound alone versus CPT-11 + MBL-II-141: P (two tailed): CPT-11 0.6878, SN-38 0.1727, MBL-II-141 0.1046.
Experimental: In order to achieve possible cumulative effects, reiterated administrations (two or three) were carried out with a 4 h time interval between administrations. Blood samples were collected at either 1 h or 4 h after the last injection.
Total blood samples were collected using dried heparinized syringes, avoiding modification of samples. Blood and plasma were stored at −80°C. […] Tissues were crushed using a dried cold system.
Both assays were performed on a C18 column HypersilGold, (ThermoElectron), 3.0 μm, (100 mm × 2.1 mm i.d.). The mass spectrometry analysis was performed in positive ion mode with electrospray source. […] A volume of 50 μL of whole blood or tissue solution was introduced into a conic centrifuge and 50 μL of solution of the internal standard and 300 μL of cold acetonitrile were added. The sample was mixed and centrifuged for 10 min at 13000 g at 5°C. […] The residues were resuspended in 100 μL of mobile phase and 10 μL were injected into the HPLC device. […] When the concentration was over the upper standard concentration, a dilution of the sample was performed using blank whole blood or appropriate tissues. Peak area ratios of compound to the respective internal standard measured at each nominal concentration were used to construct weighted (1/concentration) least-square linear regression curves. […] Results in tissues were normalized to cellular protein content. Results in tissues were normalized to cellular protein content (C1600 Abott technology).

Data set [2] concerns ABCG2. The note with it: read-out: In vitro Inhibition (IC50), cited from earlier work.
The subject of data set [3] is ABCG2-overexpressing tumors. The note with it: ref per compound in Table 2; cited from earlier work.
The test system of data set [4] is ABCG2. The note with it: ref per compound in Table 2; cited from earlier work.
The conditions of data set [5]: cited from earlier work.
The conditions of data set [6]: cited from earlier work. This is another data set of the same source.
[7] abbreviates: CPT-11 20 mg/kg + MBL-II-141 10 mg/kg IP.
Where [8] appears, read: substrate Mitoxantrone, ref [13],[21],[35],[45]–[48] (GF120918), [7] (Triclabendazole).
Setting [9] is: substrate Hoechst 3342, ref [6],[24],[49] (Ko143), [40] (YHO-13177).
[10] abbreviates: I.P., ref per compound in Table 2.
Where [11] appears, read: oral, ref per compound in Table 2.

Entries after “also recorded” stand apart in the source; their conditions may differ. Where two headings read alike, the source gives them in different places.

Experimental for HEK-pcDNA3.1 xenografts: 4.10^6 HEK-pcDNA3.1 or HEK-ABCG2 cells were sub-cutaneously injected into one flank of each SCID mouse, in solution with 50% matrigel. After the apparition of most tumors, mice were randomly distributed into 4 groups of 20 animals (10 ABCG2 negative and 10 ABCG2-positive tumors). […] Two independent injections were carried out per mouse.
Treatments were intraperitoneally administered three times a week until mice sacrifice. […] Finally, mice were sacrificed when the tumor diameter reached 17 mm.
Growth models. Tumor growth curves were modeled with GraphPad© Software. Gaussian distribution models were obtained according to the equation Y = Amplitude*exp (−0.5*((X-Mean)/SD)^2). The amplitude was the height of the center of the distribution in Y units. Mean was the X value at the center of the distribution. SD was a measure of the width of the distribution, in the same units as X. Another model was applied for sum of two Gaussian distributions with Y = one + two (One = Amplitude 1*exp(−0.5*((X-Mean1)/SD1)^2) and Two = Amplitude 2*exp(−0.5*((X-Mean2)/SD2)^2)). Amplitudes were the heights of the center of the distribution in Y units. Means were the X values at the center of the two distributions. SDs were measures of the widths of the distributions, in the same units as X.
Paired t-test. The statistical test used was the paired t-test. It was applied for all data of growth tumor experiments and pharmacokinetics data.

`CCc1c2c(nc3ccc(OC(=O)N4CCC(N5CCCCC5)CC4)cc13)-c1cc3c(c(=O)n1C2)COC(=O)[C@]3(O)CC` [CPT-11, irinotecan]: in the data set with HEK-pcDNA3.1 xenografts, the “effect on growth of ABCG2-negative cells (tumors)” value is on record as “completely blocked” and the “survival of mice bearing ABCG2-negative tumors” value came out at 100%. Also, in data set [1] (setting [7]), the “increase of CPT-11 brain levels in the presence of MBL-II-141” value is given as “approximately 2 fold”. In addition, the “fraction lost from the blood at 4 h” value in data set [1] (CPT-11 20 mg/kg IP) worked out at 90%. For the same compound, in data set [1] (paired t-test over time, P (two tailed): CPT-11 0.0416, MBL-II-141 0.1059), the “Mean of differences in Brain levels, compound alone versus CPT-11 + MBL-II-141” value was -2.085. Moreover, in data set [1] (paired t-test over time), the “Mean of differences in Blood levels, compound alone versus CPT-11 + MBL-II-141” value is reported as -220.0 and the “Mean of differences in Liver levels, compound alone versus CPT-11 + MBL-II-141” value is -28.86.

Turning to `COc1cc2c(cc1OC)CN(CCc1ccc(NC(=O)c3cccc4c(=O)c5cccc(OC)c5[nH]c34)cc1)CC2` [GF120918], the IC50 with ABCG2 [2] (setting [8]) is 0.31 µM. The “In vivo Impact on Tumor growth” value in data set [3] was “Yes”. Moreover, the “In vitro ABCG2 Specificity” value in the data set on ABCG2 [4] is “No”.

On to `COc1ccc2c3c([nH]c2c1)[C@H](CC(C)C)N1C(=O)[C@H](CCC(=O)OC(C)(C)C)NC(=O)[C@@H]1C3` [Ko143], for which the IC50 with ABCG2 [2] (setting [9]) was […]; in the data set with ABCG2 [2] (substrate Pheophorbide A, ref [6],[24],[49]), […]. Moreover, the “increase of topotecan plasma levels (oral availability)” value in data set [5] (ABCB1(−/−) mice) is […]. Also, in data set [5] (of Topotecan, ref [13],[21],[35],[45]–[48] (GF120918), [6],[24],[49] (Ko143)), the “In vivo Impact on Pharmacokinetics” value is on record as “Topotecan: Yes”. Moreover, the “In vivo Toxicity, Acute” value in data set [6] (setting [10]) is listed as […]; in data set [6] (setting [11]), above 50 mg/kg oral. Further, in the data set on ABCG2 [4], the “In vitro ABCG2 Specificity” value is “Yes”.

For `COc1ccc(/C(C#N)=C/c2ccc(N3CCC(O)CC3)s2)cc1OC` [YHO-13177], the IC50 in the data set on ABCG2 [2] (setting [9]) is around 0.3 µM. For the same compound, the “In vivo Impact on Tumor growth” value in data set [3] is “Yes”. For the same compound, the “In vivo Toxicity, Acute” value in data set [6] (I.V., ref [13],[21],[35],[45]–[48] (GF120918), [40] (YHO-13177)) is above 30 mg/kg I.V; in data set [6] (setting [11]), above 200 mg/kg oral. In addition, in the data set with ABCG2 [4], the “In vitro ABCG2 Specificity” value is reported as “Yes”.

For `CSc1nc2cc(Cl)c(Oc3cccc(Cl)c3Cl)cc2[nH]1` [Triclabendazole], in the data set on ABCG2 [2] (setting [8]), the IC50 is around 10 µM. Moreover, the “In vivo Impact on Pharmacokinetics” value in data set [5] (of Nitrofurantoin, ref [7]) is reported as “Nitrofurantoin: Yes”. The “In vivo Toxicity, Acute” value in data set [6] (setting [10]) is recorded as above 100 mg/kg I.P.

Consider `CCc1c2c(nc3ccc(O)cc13)-c1cc3c(c(=O)n1C2)COC(=O)[C@]3(O)CC` [SN-38], for which, in data set [5] (ICR mice, 1 h after the injection), the “SN-38 plasma levels lower than CPT-11” value was 27 fold. Also, the “Liver/Plasma ratio, fold-change induced by the combination treatment” value in data set [1] (30 min) is on record as 0.9 fold-change; in data set [1] (60 min), 0.6 fold-change; in data set [1] (120 min), 1.1 fold-change; in data set [1] (240 min) it was 1.0 fold-change; in data set [1] (480 min) it was 1.0 fold-change. The “change of SN-38 blood levels in the presence of MBL-II-141” value in data set [1] (setting [7]) is recorded as “increased; also recorded: strongly increased”. Further, the “difference between CPT-11 and SN-38 levels (SN-38 lower)” value in data set [1] (SCID mice) is reported as 19 fold. Further, the “time until which detected in blood” value in data set [1] (SN-38 after CPT-11 20 mg/kg IP) turned out to be 6 h. The “SN-38 levels in the brain” value in data set [1] (after CPT-11 20 mg/kg IP, with or without MBL-II-141) is “below the limits of quantification; also recorded: under the limit of detection”. Moreover, the “Mean of differences in Blood levels, compound alone versus CPT-11 + MBL-II-141” value in data set [1] (paired t-test over time) is listed as -109.6. In addition, in data set [1] (paired t-test over time), the “Mean of differences in Liver levels, compound alone versus CPT-11 + MBL-II-141” value was -12.65.
